The test system of data set [1] is formalin-induced nociceptive responses. Description: Rat formalin test (paw flinching), intrathecal drug. The class given is in vivo, Sprague-Dawley rats. The text has this:
One such model, for response to an acute stimulus, is the rat formalin test. This test reflects several levels of processing of nociceptive information in the spinal cord (see Wheeler-Aceto, et al. 1990; Wheeler-Aceto, et al., 1991). […] This second phase is thought to represent a state of facilitated processing evoked by the afferent input present during phase 1 and to involve release of at least two substances, glutamate and a, tachykinin, based on pharmacological evidence (Yamamoto and Yaksh, 1991, 1992).
In the rat formalin test, a standard dose of formalin is injected into the rat paw, and flexions of the paw are quantitated over the following 90 minute period (Example 1). A biphasic response pattern is typically observed, with numerous responses observed during the period 5 min. after injection (Phase 1) and a second phase (Phase 2) which occurs during the period about 10-60 minutes following injection. The mean number of flinches per minute is recorded as a function of time.
Quantitation of responses during each phase is made by calculation of area under the curve of flinches/min., as shown in FIGS. 2B-2C.
FIGS. 2, 3 and 5 show results of experiments in which varying doses of 3-hydroxy MEGX designated 3-hydroxy MEGX, were tested for effects on the formalin response in rats. A 5% formalin solution was injected subcutaneously into the hindpaw of Sprague-Dawley rats. Ten minutes prior to formalin injection, 3-hydroxy MEGX was administered by bolus injection through an indwelling spinal (intrathecal) catheter terminating at the lumbar enlargement. For the results shown in FIGS. 2A-2C, dosing solutions were acidified to pH 6.58 with HCl. Injection volume was 20 μl.
In the standard rat formalin test, as described above, the test substance is administered prior to formalin injection. […]
Rats (male Sprague-Dawley, 275-300 g, Harlan Industries, Indianapolis, Ind.) were implanted with lumbar intrathecal catheters under halothane anesthesia (Yaksh and Rudy, 1976). Catheters (Polyethlyene PE-10) extended from the cisterna to the rostral edge of the lumbar enlargement. Three to five days after implant, animals without motor dysfunction were tested. Drugs tested in this assay were dissolved in sterile saline (0.9% NaCl) and injected in a volume of 10 μl followed by 10 μl sterile saline to clear the catheter.
Animals were examined for the effects of drugs given in the formalin test, in which 50 μl of 5% formalin was injected on the plantar surface of the paw of a lightly anesthetized (halothane, 3%) animal. The number of spontaneous flinchings/shakings of the injected paw were counted at intervals after the injection of the formalin.
The area under the curve of flinches/min was calculated for phase 1 (time=0-10 min) and phase 2 (10-60 min). […]

Data set [2] deals with allodynia. The experiment in a line: Susceptibility of rat strains to anti-allodynia effects of lidocaine. The class given is in vivo, Sprague-Dawley versus Dark Agouti rats. Particulars: FIG. 11 legend.
Data set [3] can be described thus: Metabolism of 14C lidocaine after IV administration, HPLC profile. The format is in vivo, Harlan Sprague-Dawley and Dark Agouti rats. The following applies: 14C lidocaine IV, N=2.
The test system of data set [4] is allodynia. Particulars: Chaplan et al. 1995, IV or IT, cited from earlier work.
Setting [5] is: acute Phase 1, intrathecal, 10 min before 5% formalin, pH 6.58.
The mark [6] stands for this setting: lowest dose, 16.5 μg intrathecal, pH 6.58.
[7] abbreviates: persistent Phase 2, intrathecal, 10 min before 5% formalin, pH 6.58.

Like-named read-outs stand apart in the source and are kept apart here.

On to `CCNCC(=O)Nc1c(C)ccc(O)c1C` [3-hydroxy MEGX, 2-(ethylamino)-N-(3-hydroxy-2,6-dimethylphenyl) acetamide], for which, in data set [1] (setting [5]), the “Phase 1 ED50 (approximately 50% inhibition)” value was 9.3 µg and the “Phase 1 ED50 (approximately 50% inhibition), molar” value stood at 42 nmol. For the same molecule, the “duration of inhibition, higher doses” value in data set [1] (higher doses, intrathecal, pH 6.58, "up to 90 minutes or longer") is at least 90 min. Further, in data set [1] (intrathecal after formalin injection, pH 6.58), the “blockade of persistent (Phase 2) nociceptive responses” value was “blocks persistent (Phase 2) nociceptive responses”. For the same molecule, in data set [1] (intrathecal, dosing solutions pH 9.2, n=4 animals/group), the “blockade of formalin-induced acute and persistent nociceptive responses” value is listed as “dose-dependent blockade”. In data set [1] (setting [6]), the duration of inhibition entry is “up to one hour”; the “inhibition of Phase 1 and Phase 2 responses” value is “showed inhibition of both the Phase 1 and Phase 2 responses”. Besides, in data set [1] (setting [7]), the “Phase 2 ED50 (approximately 50% inhibition)” value was 29.9 µg and the “Phase 2 ED50 (approximately 50% inhibition), molar” value was determined as 135 nmol.

For `CCN(CC)CC(=O)Nc1c(C)cccc1C` [lidocaine], in the data set on allodynia [2], the “susceptibility to anti-allodynia effects of lidocaine, Dark Agouti rats” value is “not similarly susceptible” and the “susceptibility to anti-allodynia effects of lidocaine, Sprague-Dawley rats” value was “susceptible to anti-allodynia effects of Lidocaine”. Besides, the “glucuronidated 3-OH MEGX in elution profile, DA rats” value in data set [3] (Dark Agouti) is given as “absent from the profile of DA rats”. Further, the “glucuronidated 3-OH MEGX in elution profile, SD rats” value in data set [3] (Sprague-Dawley) is “a large peak in the elution profile of SD rats, found to consist of a glucuronidated form of 3-OH MEGX”. Moreover, in data set [1] (intrathecal, pH 6.58, injection volume 20 μl), the “effect on formalin-induced nociceptive responses” value is “no effect on the formalin-induced nociceptive responses”. For the same molecule, the “anti-allodynic effect of lidocaine” value in the data set with allodynia [4] was “no anti-allodynic effect after termination of motor block”. In addition, the “anti-allodynic effect of lidocaine” value in the data set with allodynia [4] (listed as Lidocaine) was “effective against allodynia by the intravenous, but not the intrathecal/regional routes”.

The record behind these values is US6166085A, “Method of producing analgesia” (priority 1996, dated 2000).
